Source: patent publication US6903101B1, “Substituted pyridazines and fused pyridazines with angiogenesis inhibiting activity” (Bayer Pharmaceuticals Corporation, priority 2000, dated 2005)
Counter-ions that a name gives are not always drawn.

Molecular target: T1, KDR kinase domain (Homo sapiens, UniProt P35968)
T1 construct: The cytosolic kinase domain of KDR kinase was expressed as a 6 His fusion protein in Sf9 insect cells; 6 His; made in house; host or cells: Sf9 insect cells
T1 sequence (P35968 834-1162 limits assumed): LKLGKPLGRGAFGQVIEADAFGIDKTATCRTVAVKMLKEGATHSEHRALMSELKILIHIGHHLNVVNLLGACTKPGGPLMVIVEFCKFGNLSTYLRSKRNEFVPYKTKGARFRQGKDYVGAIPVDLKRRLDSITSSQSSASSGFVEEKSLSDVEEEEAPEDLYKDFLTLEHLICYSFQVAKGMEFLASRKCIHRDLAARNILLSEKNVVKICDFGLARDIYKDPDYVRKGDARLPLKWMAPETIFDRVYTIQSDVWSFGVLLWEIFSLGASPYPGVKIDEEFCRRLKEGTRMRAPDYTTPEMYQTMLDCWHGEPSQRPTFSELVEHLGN
Test: KDR Assay (kinase ELISA, poly(Glu4;Tyr1) phosphorylation)
Format: biochemical
Conditions: 3.3 μM ATP, 60 minutes room temperature
Description: The cytosolic kinase domain of KDR kinase was expressed as a 6 His fusion protein in Sf9 insect cells. The KDR kinase domain fusion protein was purified over a Ni++chelating column. Ninety-six well ELISA plates were coated with 5 μg poly(Glu4;Tyr1) (Sigma Chemical Co., St Louis, Mo.) in 100 μl HEPES buffer (20 mM HEPES, pH 7.5, 150 mM NaCl, 0.02% Thimerosal) at 4° overnight. Before use, the plate was washed with HEPES, NaCl buffer and the plates were blocked with 1% BSA, 0.1% Tween 20 in HEPES, NaCl buffer.
Test compounds were serially diluted in 100% DMSO from 4 mM to 0.12 μM in half-log dilutions. These dilutions were further diluted twenty fold in H2O to obtain compound solutions in 5% DMSO. […]
The assay was incubated with test compound or vehicle alone with gentle agitation at room temperature for 60 minutes. […] PY/anti-PY complexes were detected with an anti-mouse IgG/HRP conjugate (Amershamn International plc, Buckinghamshire, England). Phosphotyrosine was quantitated by incubating with 100 μl 3, 3′, 5, 5′ tetramethylbenzidine solution (Kirkegaard and Perry, TMB Microwell 1 Component peroxidase substrate). […]
Optical densities were determined spectrophotometrically at 450 nm in a 96-well plate reader, SpectraMax 250 (Molecular Devices). Background (no ATP in assay) OD values were subtracted from all ODs and the percent inhibition was calculated according to the equation: [formula] […]
For `Clc1ccc(Nc2ccc(OCc3ccncc3)nn2)cc1` [Example 21], the IC50 was > 1000 nM.

Molecular target: T2, full length KDR receptor in NIH3T3 cells (Homo sapiens, UniProt P35968)
T2 construct: NIH3T3 cells expressing the full length KDR receptor were grown in DMEM; expressed in transfected cells; host or cells: NIH3T3 cells (G418 selection)
T2 sequence (P35968 20-1356): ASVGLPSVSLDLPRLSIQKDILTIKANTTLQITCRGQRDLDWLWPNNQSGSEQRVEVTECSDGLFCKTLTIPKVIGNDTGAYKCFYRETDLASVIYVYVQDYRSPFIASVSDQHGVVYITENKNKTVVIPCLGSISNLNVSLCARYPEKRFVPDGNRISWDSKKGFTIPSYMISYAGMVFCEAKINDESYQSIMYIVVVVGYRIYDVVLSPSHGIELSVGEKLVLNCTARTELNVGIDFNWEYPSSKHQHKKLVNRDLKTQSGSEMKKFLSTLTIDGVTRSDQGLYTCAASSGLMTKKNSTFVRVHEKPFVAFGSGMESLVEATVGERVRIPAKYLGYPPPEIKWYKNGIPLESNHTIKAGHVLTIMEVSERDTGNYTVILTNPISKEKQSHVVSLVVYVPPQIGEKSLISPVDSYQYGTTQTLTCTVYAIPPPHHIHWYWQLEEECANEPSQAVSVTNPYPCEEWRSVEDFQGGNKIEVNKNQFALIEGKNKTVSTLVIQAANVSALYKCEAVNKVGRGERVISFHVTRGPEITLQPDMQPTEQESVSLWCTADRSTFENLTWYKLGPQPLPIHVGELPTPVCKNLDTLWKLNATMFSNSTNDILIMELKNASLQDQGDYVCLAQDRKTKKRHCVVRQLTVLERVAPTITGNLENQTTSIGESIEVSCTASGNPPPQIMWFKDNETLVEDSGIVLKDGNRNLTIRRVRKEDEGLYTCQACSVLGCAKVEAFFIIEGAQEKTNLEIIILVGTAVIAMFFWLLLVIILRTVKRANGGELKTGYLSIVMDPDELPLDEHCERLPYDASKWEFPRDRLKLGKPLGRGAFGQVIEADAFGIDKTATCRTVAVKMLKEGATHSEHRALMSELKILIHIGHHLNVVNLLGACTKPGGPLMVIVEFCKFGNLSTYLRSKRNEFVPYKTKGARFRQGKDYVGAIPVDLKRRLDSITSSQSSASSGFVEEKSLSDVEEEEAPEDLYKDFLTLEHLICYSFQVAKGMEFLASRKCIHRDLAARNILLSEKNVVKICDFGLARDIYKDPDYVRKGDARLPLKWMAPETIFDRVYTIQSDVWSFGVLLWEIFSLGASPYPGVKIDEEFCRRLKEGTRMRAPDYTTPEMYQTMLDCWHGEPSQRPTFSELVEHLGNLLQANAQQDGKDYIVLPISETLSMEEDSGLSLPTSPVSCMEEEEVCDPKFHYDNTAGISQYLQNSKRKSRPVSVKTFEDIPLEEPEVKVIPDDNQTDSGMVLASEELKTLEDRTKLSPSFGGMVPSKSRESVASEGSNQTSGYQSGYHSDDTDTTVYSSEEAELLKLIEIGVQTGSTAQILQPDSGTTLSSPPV
Test: Cell mechanistic assay - Inhibition of 3T3 KDR phosphorylation
Format: cell-based
Conditions: NIH3T3 cells expressing KDR, VEGF (30 ng/ml) stimulation, receptor phosphotyrosine ELISA
Description: Cell mechanistic assay-Inhibition of 3T3 KDR phosphorylation:
NIH3T3 cells expressing the full length KDR receptor were grown in DMEM (Life Technologies, Inc., Grand Island, N.Y.) supplemented with 10% newborn calf serum, low glucose, 25 mM/L sodium pyruvate, pyridoxine hydrochloride and 0.2 mg/ml of G418 (Life Technologies Inc., Grand Island, N.Y.). The cells were maintained in collagen I-coated T75 flasks (Becton Dickinson Labware, Bedford, Mass.) in a humidified 5% CO2 atmosphere at 37° C.
Fifteen thousand cells were plated into each well of a collagen I-coated 96-well plate in the DMEM growth medium. Six hours later, the cells were washed and the medium was replaced with DMEM without serum. […]
To assess receptor phosphorylation, 100 microliters of each cell lysate was added to the wells of an ELISA plate precoated with 300 ng of antibody C20 (Santa Cruz Biotechnology, Inc., Santa Cruz, Calif.). […] Wells were washed and phosphotyrosine was quantitated by addtion of 100 μl per well of 3,3′,5,5′ tetramethylbenzidine (Kirkegaard and Perry, TMB Microwell 1 Component peroxidase substrate) solution. […]
Optical densities (OD) were determined spectrophotometrically at 450 nm in a 96-well plate reader (SpectraMax 250, Molecular Devices). Background (no VEGF added) OD values were subtracted from all ODs and percent inhibition was calculated according to the equation: [formula] […]
With `Clc1ccc(Nc2ccc(OCc3ccncc3)nn2)cc1` [Example 21] the IC50 was > 50 nM.

Test system: not given
Test: not given
Conditions: not given
Work on `NC(=O)c1cc(COc2nnc(Nc3ccc(Cl)cc3)c3ccccc23)ccn1` (as salt: methanesulfonate) [Example 16, 4-[4-(4-Chlorophenylamino)phthalazin-1-yloxymethyl]pyridin-2-yl carboxylic acid amide dimethanesulfonate] yielded a melting point of 75 to 80 °C.
`c1ccc2c(Nc3ccc4ncsc4c3)nnc(Cc3ccncc3)c2c1` [Example 23] gave a melting point of 163 to 164 °C.
In the case of `NC(=O)c1cc(Cc2nnc(Nc3ccc(Cl)cc3)c3ccccc23)ccn1` (as salt: methanesulfonate) [Example 14, 4-[4-(4-Chlorophenylamino)phthalazin-1-ylmethyl]pyridin-2-yl carboxylic acid amide dimethanesulfonate], the melting point is reported as 156 to 161 °C.
In the case of `CNC(=O)c1cc(Cc2nnc(Nc3ccc(Cl)cc3)c3ccccc23)ccn1` (as salt: methanesulfonate) [Example 12, 4-[4-(4-Chlorophenylamino)phthalazin-1-ylmethyl]pyridin-2-yl carboxylic acid methylamide dimethanesulfonate], the melting point is reported as 245 to 249 °C.
With `CNC(=O)c1cc(Cc2nnc(Nc3ccc(Cl)cc3)c3ccccc23)ccn1` (as salt: hydrochloride) [Example 11, 4-[4-(4-Chlorophenylamino)phthalazin-1-ylmethyl]pyridin-2-yl carboxylic acid methylamide dihydrochloride] the melting point was 255 °C (dec.).
`NC(=O)c1cc(COc2nnc(Nc3ccc(Cl)cc3)c3ccccc23)ccn1` (as salt: hydrochloride) [Example 15, 4-[4-(4-Chlorophenylamino)phthalazin-1-yloxymethyl]pyridin-2-yl carboxylic acid amide dihydrochloride] showed a melting point of 143 to 145.2 °C.
For `Cl.Cl.NC(=O)c1cc(Cc2nnc(Nc3ccc(Cl)cc3)c3ccccc23)ccn1` [Example 13, 4-[4-(4-Chlorophenylamino)phthalazin-1-ylmethyl]pyridin-2-yl carboxylic acid amide dihydrochloride], the melting point was 180 to 198 °C.
Work on `N#CC(c1ccncc1)c1nnc(Nc2ccc3c(c2)CCC3)c2ccccc12` (stereo not shown) [Example 22, 1-(indan-5-ylamino)-4-(4-pyridylcyanomethyl)phthalazine] yielded a melting point of 122 to 123 °C.
